In patent publication US11498903B2 (BRISTOL-MYERS SQUIBB COMPANY, priority 2017, dated 2022):
Where two headings read alike, the source gives them in different places.

Molecular target: T1, human APJ receptor (Homo sapiens, UniProt P35414)
T1 construct: expressed in transfected cells
T1 sequence (P35414 1-380): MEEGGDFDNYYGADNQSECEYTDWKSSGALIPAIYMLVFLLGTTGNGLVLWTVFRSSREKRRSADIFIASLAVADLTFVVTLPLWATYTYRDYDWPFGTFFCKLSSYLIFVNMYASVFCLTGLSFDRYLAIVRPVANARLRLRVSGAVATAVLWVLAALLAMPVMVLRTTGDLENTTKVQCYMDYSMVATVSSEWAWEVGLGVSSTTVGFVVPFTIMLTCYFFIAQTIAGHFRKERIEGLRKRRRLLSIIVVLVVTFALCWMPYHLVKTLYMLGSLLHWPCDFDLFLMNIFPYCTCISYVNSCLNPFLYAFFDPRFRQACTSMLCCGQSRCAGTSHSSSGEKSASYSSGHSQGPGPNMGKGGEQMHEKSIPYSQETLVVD
Assay: Intracellular cAMP accumulation assay (APJ hcAMP, HTRF)
Type: cell-based
Details: HEK293 cells stably expressing human APJ receptor
Outline: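 Inhibition of 2 μM forskolin-driven cAMP ([…] present) measured by HTRF in 5,000 HEK293 cells/well stably expressing human APJ, 30 min, room temperature. EC50 came from a variable-slope sigmoidal fit; Ymax was relative to (Pyr1)apelin-13 set at 100%.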

[1] = Table 1, inhibition of forskolin-mediated cAMP production, read-out: APJ hcAMP EC50
[2] = Table 3, read-out: APJ cAMP Human EC50

SMILES | EC50 [1] | EC50 [2]
COc1cc2[nH]c(-c3cccc(Cl)c3-c3ccc(C(=O)NCc4ccccc4)cc3C(=O)O)nc2cc1F [Example 119, (S)-4-(benzylcarbamoyl)-2′-chloro-6′-(5-fluoro-6-methoxy-1H-1,3-benzodiazol-2-yl)-[1,1′-biphenyl]-2-carboxylic acid] | 0.01 to 0.1 µM | 0.01 to 0.1 µM
COc1cc2[nH]c(-c3cccc(Cl)c3-c3ccc(C(=O)NCc4ccc(Cl)cc4)cc3C(=O)O)nc2cc1F [Example 120, (S)-2′-chloro-4-{[(4-chlorophenyl)methyl]carbamoyl}-6′-(5-fluoro-6-methoxy-1H-1,3-benzodiazol-2-yl)-[1,1′-biphenyl]-2-carboxylic acid] | 0.01 to 0.1 µM | 0.01 to 0.1 µM
COc1cc2[nH]c(-c3cccc(Cl)c3-c3ccc(C(=O)NCC(C)C)cc3C(=O)O)nc2cc1F [Example 121, (S)-2′-chloro-6′-(5-fluoro-6-methoxy-1H-1,3-benzodiazol-2-yl)-4-[(2-methylpropyl)carbamoyl [1,1′-biphenyl]-2-carboxylic acid] | 0.01 to 0.1 µM | 0.01 to 0.1 µM
COc1cc2[nH]c(-c3cccc(Cl)c3-c3ccc(C(=O)NCCCN(C)C)cc3C(=O)O)nc2cc1F [Example 122, (S)-2′-chloro-4-{[3-(dimethylamino)propyl]carbamoyl}-6′-(5-fluoro-6-methoxy-1H-1,3-benzodiazol-2-yl)-[1,1′-biphenyl]-2-carboxylic acid] | 0.01 to 0.1 µM | 0.01 to 0.1 µM
COc1cc2[nH]c(-c3cccc(Cl)c3-c3ccc(C(=O)N4CCC(O)CC4)cc3C(=O)O)nc2cc1F [Example 123, (S)-2′-chloro-6′-(5-fluoro-6-methoxy-1H-1,3-benzodiazol-2-yl)-4-(4-hydroxypiperidine-1-carbonyl)-[1,1′-biphenyl]-2-carboxylic acid] | 0.01 to 0.1 µM | 0.01 to 0.1 µM
COc1cc2[nH]c(-c3cccc(Cl)c3-c3ccc(C(=O)N4CCCC4)cc3C(=O)O)nc2cc1F [Example 124, (S)-2′-chloro-6′-(5-fluoro-6-methoxy-2-yl)-4-(pyrrolidine-1-carbonyl)-[1,1′-biphenyl]-2-carboxylic acid] | 0.01 to 0.1 µM | 0.01 to 0.1 µM

Next, values leading:

EC50 [1] | EC50 [2] | SMILES
< 0.01 µM | < 0.01 µM | COc1cc2[nH]c(-c3cccc(Cl)c3-c3ccc(C(=O)NCCC(C)C)cc3C(=O)O)nc2cc1F [Example 114, (S)-2′-chloro-6′-(5-fluoro-6-methoxy-1H-1,3-benzodiazol-2-yl)-4-[(3-methylbutyl)carbamoyl]-[1,1′-biphenyl]-2-carboxylic acid]
 | 0.01 to 0.1 µM | COc1ccc(CNC(=O)c2ccc(-c3c(Cl)cccc3-c3nc4cc(F)c(OC)cc4[nH]3)c(C(=O)O)c2)cc1 [Example 115, (S)-2′-chloro-6′-(5-fluoro-6-methoxy-1H-1,3-benzodiazol-2-yl)-4-{[(4-methoxyphenyl)methyl]carbamoyl}-[1,1′-biphenyl}-2-carboxylic acid]
 | 0.01 to 0.1 µM | COC(=O)CCNC(=O)c1ccc(-c2c(Cl)cccc2-c2nc3cc(F)c(OC)cc3[nH]2)c(C(=O)O)c1 [Example 116, (S)-2′-chloro-6′-(5-fluoro-6-methoxy-1H-1,3-benzodiazol-2-yl)-4-[(3-methoxy-3-oxopropyl)carbamoyl]-[1,1′-biphenyl]-2-carboxylic acid]
0.01 to 0.1 µM | 0.01 to 0.1 µM | COc1cc2[nH]c(-c3cccc(Cl)c3-c3ccc(C(=O)NCC(c4ccccc4)c4ccccc4)cc3C(=O)O)nc2cc1F [Example 117, (S)-2′-chloro-4-[(2,2-diphenylethyl)carbamoyl]-6′-(5-fluoro-6-methoxy-1H-1,3-2-benzodiazol-2-yl)-[1,1′-biphenyl]-2-carboxylic acid]
0.01 to 0.1 µM | 0.01 to 0.1 µM | COc1cc2[nH]c(-c3cccc(Cl)c3-c3ccc(C(=O)N4CCN(C)CC4)cc3C(=O)O)nc2cc1F [Example 118, (S)-2′-chloro-6′-(5-fluoro-6-methoxy-1H-1,3-benzodiazol-2-yl)-4-(4-methylpiperazine-1-carbonyl)-[1,1′-biphenyl]-2-carboxylic acid]
